Assay results reported in PMC9161374 (Science Translational Medicine, 2022).

Legend:
Assay type in all cases: cell-based
[1] = test system: SARS-CoV-2 replicon system (pBAC-SARS-CoV-2-Replicon-Luc); test: microbe, parasite or virus in culture
SARS-CoV-2 (B.1) = test: Anti-SARS-CoV-2 activity in Vero E6 cells (viral yield by qRT-PCR)
[2] = test system: SARS-CoV-2 (Beta, B.1.351); test: microbe, parasite or virus in culture; settings: for % Inhibition: beta
[3] = test system: SARS-CoV-2 (Delta, B.1.617.2); test: microbe, parasite or virus in culture

For `CC(C)C(=O)OC[C@H]1O[C@@](C#N)(c2ccc3c(N)ncnn23)[C@H](O)[C@@H]1O` [ATV006], the “activity in the replicon system in comparison with parent GS-441524” value [1] was “improved the inhibitory activities”, the EC50 ([1]; Severe acute respiratory syndrome coronavirus 2, HEK-293T, 60 h, read-out: EC50 (Confidence 95%), replicon) was 521 nM and the EC90 ([1]; Severe acute respiratory syndrome coronavirus 2, HEK-293T, 60 h, read-out: EC90 (Confidence 95%), replicon) was 3220 nM. The “% Inhibition” value (SARS-CoV-2 (B.1); 1 μM, replicates, sheet Fig.S3) was 3.722%, the “% Inhibition” value (SARS-CoV-2 (B.1); 2 μM, replicates, sheet Fig.S3) was 87.0049% and the “% Inhibition” value (SARS-CoV-2 (B.1); 5 μM, replicates, sheet Fig.S3) was 91.6411%. For the same compound, the “% Inhibition” value (SARS-CoV-2 (B.1); 10 μM, replicates, sheet Fig.S3) was 90.9393%, the “% Inhibition” value (SARS-CoV-2 (B.1); B.1, 1 uM, Vero E6, replicates, 1 µM) was 3.249% and the “% Inhibition” value (SARS-CoV-2 (B.1); B.1, 2 uM, Vero E6, replicates, 2 µM) was 99.386%. The “% Inhibition” value (SARS-CoV-2 (B.1); B.1, 5 uM, Vero E6, replicates, 5 µM) was 99.8149%, the “% Inhibition” value (SARS-CoV-2 (B.1); B.1, 10 uM, Vero E6, replicates, 10 µM) was 99.9851% and the “% Inhibition” value (SARS-CoV-2 (B.1); B.1, 50 uM, Vero E6, replicates, 50 µM) was 99.991%. It also gave an inhibition at 0.1 µM (SARS-CoV-2 (B.1); Severe acute respiratory syndrome coronavirus 2, Vero C1008, 0.1 μM, replicates, sheet Fig.S3) of 0%, an inhibition at 0.5 µM (SARS-CoV-2 (B.1); Severe acute respiratory syndrome coronavirus 2, Vero C1008, 0.5 μM, replicates, sheet Fig.S3) of 0% and an inhibition at 2 µM (SARS-CoV-2 (B.1); Severe acute respiratory syndrome coronavirus 2, Vero C1008, 2 μM, replicates, sheet Fig.S3) of 87.7%. It also gave an inhibition at 5 µM (SARS-CoV-2 (B.1); Severe acute respiratory syndrome coronavirus 2, Vero C1008, 5 μM, replicates, sheet Fig.S3) of 93.3%, an inhibition at 10 µM (SARS-CoV-2 (B.1); Severe acute respiratory syndrome coronavirus 2, Vero C1008, 10 μM, replicates, sheet Fig.S3) of 93.2% and an inhibition at 0.01 µM (SARS-CoV-2 (B.1); Severe acute respiratory syndrome coronavirus 2, Vero C1008, B.1, 0.01 uM, Vero E6, replicates) of 0%. The inhibition at 0.1 µM (SARS-CoV-2 (B.1); Severe acute respiratory syndrome coronavirus 2, Vero C1008, B.1, 0.1 uM, Vero E6, replicates) was 0%, the inhibition at 0.25 µM (SARS-CoV-2 (B.1); Severe acute respiratory syndrome coronavirus 2, Vero C1008, B.1, 0.25 uM, Vero E6, replicates) was 0% and the inhibition at 0.5 µM (SARS-CoV-2 (B.1); Severe acute respiratory syndrome coronavirus 2, Vero C1008, B.1, 0.5 uM, Vero E6, replicates) was 0%. It also gave an inhibition at 1 µM (SARS-CoV-2 (B.1); Severe acute respiratory syndrome coronavirus 2, Vero C1008, B.1, 1 uM, Vero E6, replicates) of 3.85%, an inhibition at 2 µM (SARS-CoV-2 (B.1); Severe acute respiratory syndrome coronavirus 2, Vero C1008, B.1, 2 uM, Vero E6, replicates) of 97.4% and an inhibition at 5 µM (SARS-CoV-2 (B.1); Severe acute respiratory syndrome coronavirus 2, Vero C1008, B.1, 5 uM, Vero E6, replicates) of 99.8%. For the same compound, the inhibition at 10 µM (SARS-CoV-2 (B.1); Severe acute respiratory syndrome coronavirus 2, Vero C1008, B.1, 10 uM, Vero E6, replicates) was 99.9%, the inhibition at 50 µM (SARS-CoV-2 (B.1); Severe acute respiratory syndrome coronavirus 2, Vero C1008, B.1, 50 uM, Vero E6, replicates) was 100% and the EC90 (SARS-CoV-2 (B.1); Severe acute respiratory syndrome coronavirus 2, Vero C1008, read-out: EC90 (Confidence 95%)) was 2180 nM. For the same compound, the EC50 (SARS-CoV-2 (B.1); Severe acute respiratory syndrome coronavirus 2, Vero C1008, MOI 0.05, 48 h) was 1360 nM, the EC50 ([2]; Severe acute respiratory syndrome coronavirus 2, Vero C1008, 48 h, read-out: EC50 in Vero E6 cells, SARS-CoV-2 (Beta, B.1.351)) was 1130 nM and the inhibition at 0.01 µM ([2]; Severe acute respiratory syndrome coronavirus 2, Vero C1008, beta, 0.01 uM, Vero E6, replicates) was 0%. For the same compound, the inhibition at 0.1 µM ([2]; Severe acute respiratory syndrome coronavirus 2, Vero C1008, beta, 0.1 uM, Vero E6, replicates) was 0%, the inhibition at 0.25 µM ([2]; Severe acute respiratory syndrome coronavirus 2, Vero C1008, beta, 0.25 uM, Vero E6, replicates) was 0% and the inhibition at 0.5 µM ([2]; Severe acute respiratory syndrome coronavirus 2, Vero C1008, beta, 0.5 uM, Vero E6, replicates) was 0%. For the same compound, the inhibition at 1 µM ([2]; Severe acute respiratory syndrome coronavirus 2, Vero C1008, beta, 1 uM, Vero E6, replicates) was 32.1%, the inhibition at 2 µM ([2]; Severe acute respiratory syndrome coronavirus 2, Vero C1008, beta, 2 uM, Vero E6, replicates) was 99.6% and the inhibition at 5 µM ([2]; Severe acute respiratory syndrome coronavirus 2, Vero C1008, beta, 5 uM, Vero E6, replicates) was 99.7%. The inhibition at 10 µM ([2]; Severe acute respiratory syndrome coronavirus 2, Vero C1008, beta, 10 uM, Vero E6, replicates) was 99.9%, the inhibition at 50 µM ([2]; Severe acute respiratory syndrome coronavirus 2, Vero C1008, beta, 50 uM, Vero E6, replicates) was 99.9% and the EC90 ([2]; Severe acute respiratory syndrome coronavirus 2, Vero C1008, read-out: EC90 (Confidence 95%), Vero-E6, Beta B.1.351) was 1360 nM. For the same compound, the “% Inhibition” value ([2]; 1 uM, Vero E6, replicates) was 16.537%, the “% Inhibition” value ([2]; 2 uM, Vero E6, replicates) was 99.486% and the “% Inhibition” value ([2]; 5 uM, Vero E6, replicates) was 99.5312%. For the same compound, the “% Inhibition” value ([2]; 10 uM, Vero E6, replicates) was 99.9431%, the “% Inhibition” value ([2]; 50 uM, Vero E6, replicates) was 99.9484% and the EC50 ([3]; Severe acute respiratory syndrome coronavirus 2, Vero C1008, 48 h, read-out: EC50 in Vero E6 cells, SARS-CoV-2 (Delta, B.1.617.2)) was 349 nM. The inhibition at 0.01 µM ([3]; Severe acute respiratory syndrome coronavirus 2, Vero C1008, delta, 0.01 uM, Vero E6, replicates) was 0%, the inhibition at 0.1 µM ([3]; Severe acute respiratory syndrome coronavirus 2, Vero C1008, delta, 0.1 uM, Vero E6, replicates) was 0% and the inhibition at 0.25 µM ([3]; Severe acute respiratory syndrome coronavirus 2, Vero C1008, delta, 0.25 uM, Vero E6, replicates) was 13.4%. The inhibition at 0.5 µM ([3]; Severe acute respiratory syndrome coronavirus 2, Vero C1008, delta, 0.5 uM, Vero E6, replicates) was 86.8%.
